Measurements taken from patent US20210138025A1, “CATIONIC PEPTIDES WITH IMMUNOMODULATORY AND/OR ANTI-BIOFILM ACTIVITIES” (priority 2018, published 2021).
Like-named read-outs stand apart in the source and are kept apart here. No end group written: not given here.

Key:
PBMCs = assay: Cytotoxicity towards PBMCs, lactate dehydrogenase (LDH) release assay (Tables 6, 7); conditions: SPOT synthesized peptide ~25 μM, PBMCs from 3 human donors; Table 6
S. aureus (Sau) [1] = assay type: cell-based
E. coli (Ec) [2] = assay type: cell-based
Procedure: (§1) The same strains as in Table 18 were assessed for Minimal Biofilm Inhibitory Concentrations (MBIC) (Table 19). Italics=excellent activity (less than or equal to 4 μg/ml). ND=Not determined. Peptides 3013, 3015 and 3016 inhibited biofilm growth in the largest number of bacterial strains (5, 5 and 6 out of 13 strains, respectively).
(§2) In addition, several peptides expressed preferential activity vs. biofilms (MBIC) cf. planktonic cells (MIC) (Table 20).

S. aureus (Sau) [3] = assay type: cell-based; remark: listed apart in the source
Procedure: as §1, §2

E. coli (Ec) [4] = assay type: cell-based; remark: listed apart in the source
[5] = test system: planktonic methicillin resistant S. aureus; assay: microbe, parasite or virus in culture; assay type: cell-based, Staphylococcus aureus
[6] = planktonic methicillin resistant
[7] = planktonic methicillin resistant S. aureus, broth microdilution in Mueller Hinton Broth (MHB), mean of three biological replicates
[8] = planktonic methicillin resistant S. aureus, broth microdilution in Tryptic Soy Broth (TSB) supplemented with 1% glucose, mean of three biological replicates

RVKAIKWRKIVV-NH2 [Peptide 3012, RVKAIKWRKIVV]
% Toxicity (LDH Release) (PBMCs): 2.8%
MIC S. aureus (S. aureus (Sau) [1]; Sau): >64 µg/mL
MBIC E. coli (E. coli (Ec) [2]; Ec): 32 µg/mL
MBIC S. aureus (S. aureus (Sau) [3]; Sau): 8 µg/mL
MIC E. coli (E. coli (Ec) [4]; Ec): 64 µg/mL
MIC (μM) MHB [5, 6]: >64 µM
MIC (μM) TSB with 1% Glucose [5, 6]: >64 µM

VIKWLLKILRAI-NH2 [Peptide 3001, VIKWLLKILRAI]
% Toxicity (LDH Release) (PBMCs): 64.4%
MIC S. aureus (S. aureus (Sau) [1]; Sau): 2 µg/mL
MBIC E. coli (E. coli (Ec) [2]; Ec): 2 µg/mL
MBIC S. aureus (S. aureus (Sau) [3]; Sau): <1 µg/mL
MIC E. coli (E. coli (Ec) [4]; Ec): 4 µg/mL
MIC (μM) MHB [5, 6]: 1 µM
MIC (μM) TSB with 1% Glucose [5, 6]: 2 µM

VLKIKVKIWVVK-NH2 [Peptide 3007, VLKIKVKIWVVK]
% Toxicity (LDH Release) (PBMCs): 2%
MIC S. aureus (S. aureus (Sau) [1]; planktonic cells, Table 20): 16 µg/mL
MBIC E. coli (E. coli (Ec) [2]; biofilms, Table 20): 4 µg/mL
MBIC S. aureus (S. aureus (Sau) [3]; biofilms, Table 20): 2 µg/mL
MIC E. coli (E. coli (Ec) [4]; planktonic cells, Table 20): 8 µg/mL
MIC (μM) MHB [5, 7]: 16 µM
MIC (μM) TSB with 1% Glucose [5, 8]: >64 µM

VLQIKKVLRLLL-NH2 [Peptide 3011, VLQIKKVLRLLL]
% Toxicity (LDH Release) (PBMCs): 15.7%
MIC S. aureus (S. aureus (Sau) [1]; planktonic cells, Table 20): 64 µg/mL
MBIC E. coli (E. coli (Ec) [2]; biofilms, Table 20): 4 µg/mL
MBIC S. aureus (S. aureus (Sau) [3]; biofilms, Table 20): 2 µg/mL
MIC E. coli (E. coli (Ec) [4]; planktonic cells, Table 20): 8 µg/mL
MIC (μM) MHB [5, 7]: 8 µM
MIC (μM) TSB with 1% Glucose [5, 8]: 16 µM

VQRIIWLRVKIV-NH2 [Peptide 3023, VQRIIWLRVKIV]
% Toxicity (LDH Release) (PBMCs): −3%
MIC S. aureus (S. aureus (Sau) [1]; Sau): 4 µg/mL
MBIC E. coli (E. coli (Ec) [2]; Ec): 1 µg/mL
MBIC S. aureus (S. aureus (Sau) [3]; Sau): 2 µg/mL
MIC E. coli (E. coli (Ec) [4]; Ec): 2 µg/mL
MIC (μM) MHB [5, 6]: 16 µM
MIC (μM) TSB with 1% Glucose [5, 6]: >64 µM

WKKVQWLKRLLL-NH2 [Peptide 3003, WKKVQWLKRLLL]
% Toxicity (LDH Release) (PBMCs): 22.5%
MIC S. aureus (S. aureus (Sau) [1]; Sau): 16 µg/mL
MBIC E. coli (E. coli (Ec) [2]; Ec): 2 µg/mL
MBIC S. aureus (S. aureus (Sau) [3]; Sau): 1 µg/mL
MIC E. coli (E. coli (Ec) [4]; Ec): 4 µg/mL
MIC (μM) MHB [5, 6]: 4 µM
MIC (μM) TSB with 1% Glucose [5, 6]: 16 µM

WQGWAKIWVVRI-NH2 [Peptide 3019, WQGWAKIWVVRI]
% Toxicity (LDH Release) (PBMCs): −3.1%
MIC S. aureus (S. aureus (Sau) [1]; Sau): 4 µg/mL
MBIC E. coli (E. coli (Ec) [2]; Ec): 2 µg/mL
MBIC S. aureus (S. aureus (Sau) [3]; Sau): 2 µg/mL
MIC E. coli (E. coli (Ec) [4]; Ec): 4 µg/mL
MIC (μM) MHB [5, 6]: 8 µM
MIC (μM) TSB with 1% Glucose [5, 6]: 32 µM

WVGVIIKWGLKL-NH2 [Peptide 3018, WVGVIIKWGLKL]
% Toxicity (LDH Release) (PBMCs): −0.3%
MIC S. aureus (S. aureus (Sau) [1]; Sau): 2 µg/mL
MBIC E. coli (E. coli (Ec) [2]; Ec): 2 µg/mL
MBIC S. aureus (S. aureus (Sau) [3]; Sau): 1 µg/mL
MIC E. coli (E. coli (Ec) [4]; Ec): 4 µg/mL
MIC (μM) MHB [5, 6]: 2 µM
MIC (μM) TSB with 1% Glucose [5, 6]: 4 µM
